A short description of this data set: HILIC, Merck SeQuant ZIC-pHILIC, 150 × 2.1 mm, 5 µm, 0.1 mL/min, estimated dead time 3.3 min; A: acetonitrile; B: water + 10 mM ammonium carbonate; gradient (min/%B) 0/20 30/80. The note with it: stereoisomer not certain.

Take `O=CC(O)COP(=O)(O)O` (stereo unspecified) [Glyceraldehyde-3-phosphate]: the LC retention time was 13.2 min.
On to `O=C(O)C(O)CO` (stereo unspecified) [Glyceric acid], for which the LC retention time was 10.1 min.
For the compound `O=P(O)(O)OC(CO)CO` [Glycerol-2-phosphate], the LC retention time was 12.2 min.
The same measure for `C[N+](C)(C)CCOP(=O)([O-])OCC(O)CO` (stereo unspecified) [Glycerophosphocholine]: 12.1 min; for `Nc1nc2c(ncn2C2OC(CO)C(O)C2O)c(=O)[nH]1` (stereo unspecified) [Guanosine]: 9.8 min; for `CC(O)(CC(=O)O)CC(=O)SCCNC(=O)CCNC(=O)C(O)C(C)(C)COP(=O)(O)OP(=O)(O)OCC1OC(n2cnc3c(N)ncnc32)C(O)C1OP(=O)(O)O` (stereo unspecified) [HMG-CoA]: 13.2 min.
For `CCCCCC(=O)OC(CC(=O)[O-])C[N+](C)(C)C` (stereo unspecified) [Hexanoyl-carnitine], the LC retention time was 4.8 min.
For `O=C(O)CNC(=O)c1ccccc1` [Hippurate], the LC retention time is 4.4 min.
In the case of `NCCc1cnc[nH]1` [Histamine], the LC retention time is 24.8 min.
Turning to `NC(Cc1cnc[nH]1)C(=O)O` (stereo unspecified) [Histidine], the LC retention time was 12 min.
As for `NC(CO)Cc1cnc[nH]1` (stereo unspecified) [Histidinol], the LC retention time is 16.3 min.
The same measure for `O=c1[nH]cnc2nc[nH]c12` [Hypoxanthine]: 7.6 min; for `O=S(=O)(O)Oc1c[nH]c2ccccc12` [Indoxyl-sulfate]: 4.9 min; for `O=c1[nH]cnc2c1ncn2C1OC(CO)C(O)C1O` (stereo unspecified) [Inosine]: 8.2 min.
Consider `CCC(C)C(N)C(=O)O` (stereo unspecified) [Isoleucine], for which the LC retention time was 8.6 min.
Consider `CC(C)CC(=O)OC(CC(=O)[O-])C[N+](C)(C)C` (stereo unspecified) [Isovaleryl-carnitine], for which the LC retention time is 5.4 min.
Regarding `Nc1ccccc1C(=O)CC(N)C(=O)O` (stereo unspecified) [Kynurenine], the LC retention time is 8 min.
With `CC(C)CC(N)C(=O)O` (stereo unspecified) [Leucine] the figure was 7.6 min.
As for `NCCCCC(N)C(=O)O` (stereo unspecified) [Lysine], the LC retention time was 23.3 min.
Take `O=C(O)CC(O)C(=O)O` (stereo unspecified) [Malate]: the LC retention time was 13.3 min.
For the compound `CSCCC(N)C(=O)O` (stereo unspecified) [Methionine], the LC retention time is 8.7 min.
As for `Cn1cnc(CC(N)C(=O)O)c1` (stereo unspecified) [Methyl-histidine], the LC retention time is 10.2 min.
On to `CNCCCCC(N)C(=O)O` (stereo unspecified) [Methyl-lysine], for which the LC retention time is 22.1 min.
As to `CC(=O)NC(CCCC[NH3+])C(=O)[O-]` (stereo unspecified) [N2-Acetyl-lysine], the LC retention time was 12.7 min.
As for `CC(=O)NCCCCC([NH3+])C(=O)[O-]` (stereo unspecified) [N6-Acetyl-lysine], the LC retention time was 10.5 min.
The same measure for `CCC(C)C(NC(C)=O)C(=O)O` (stereo unspecified) [N-Acetyl-(iso)leucine]: 4.4 min.
The same measure for `CC(=O)N[C@H]1C(O)O[C@H](CO)[C@@H](O)[C@@H]1O` (stereo partly drawn) [N-Acetyl-D-glucosamine]: 9.3 min; for `CC(=O)NC(CCC[NH+]=C(N)N)C(=O)[O-]` (stereo unspecified) [N-Acetyl-arginine]: 12.3 min; for `CC(=O)NC(CC(=O)O)C(=O)O` (stereo unspecified) [N-Acetyl-aspartate]: 12.5 min.
Regarding `CC(=O)NC(CCC(=O)O)C(=O)O` (stereo unspecified) [N-Acetyl-glutamate], the LC retention time was 11.6 min.
The same measure for `CC(=O)NC(CCCN)C(=O)O` (stereo unspecified) [N-Acetyl-ornithine]: 11.1 min; for `NC(=O)c1ccc[n+](C2OC(COP(=O)(O)OP(=O)(O)OCC3OC(n4cnc5c(N)ncnc54)C(O)C3O)C(O)C2O)c1` (stereo unspecified) [NAD+]: 11.9 min; for `NC(=O)C1=CN(C2OC(COP(=O)(O)OP(=O)(O)OCC3OC(n4cnc5c(N)ncnc54)C(O)C3O)C(O)C2O)C=CC1` (stereo unspecified) [NADH]: 11.1 min.
With `NC(=O)c1ccc[n+](C2OC(COP(=O)(O)OP(=O)(O)OCC3OC(n4cnc5c(N)ncnc54)C(OP(=O)(O)O)C3O)C(O)C2O)c1` (stereo unspecified) [NADP+] the figure was 14.4 min; with `NC(=O)C1=CN(C2OC(COP(=O)(O)OP(=O)(O)OCC3OC(n4cnc5c(N)ncnc54)C(OP(=O)(O)O)C3O)C(O)C2O)C=CC1` (stereo unspecified) [NADPH], 14.8 min.
In the case of `NC(=O)c1cccnc1` [Nicotinamide], the LC retention time is 4.7 min.
With `CCCCCCCC(=O)OC(CC(=O)[O-])C[N+](C)(C)C` (stereo unspecified) [Octanoyl-carnitine] the figure was 4.1 min; with `CCC(NC(=O)CCC(N)C(=O)O)C(=O)NCC(=O)O` (stereo unspecified) [Ophthalmic acid], 11.2 min.
Turning to `NCCCC(N)C(=O)O` (stereo unspecified) [Ornithine], the LC retention time was 20.8 min.
As to `O=P(O)(O)OCC1OC(OP(=O)(O)OP(=O)(O)O)C(O)C1O` [PRPP (5-Phospho-alpha-D-ribose 1-diphosphate)], the LC retention time is 16.5 min.
As to `CC(C)(CO)C(O)C(=O)NCCC(=O)O` (stereo unspecified) [Pantothenate], the LC retention time was 6.1 min.
Regarding `NC(Cc1ccccc1)C(=O)O` (stereo unspecified) [Phenylalanine], the LC retention time was 7.3 min.
Regarding `CN(CC(=O)O)C(N)=NP(=O)(O)O` [Phosphocreatine], the LC retention time was 12.7 min.
With `C=C(OP(=O)(O)O)C(=O)[O-]` [Phosphoenolpyruvate] the figure was 15.1 min; with `O=C(O)C1CCCN1` (stereo unspecified) [Proline], 10.2 min.
With `CCC(=O)OC(CC(=O)[O-])C[N+](C)(C)C` (stereo unspecified) [Propionyl-carnitine] the figure was 7.2 min; with `O=C(O)C1(O)CC(O)C(O)C(O)C1` (stereo unspecified) [Quinic acid], 10.4 min; with `O=C(O)c1cccnc1C(=O)O` [Quinolinic acid], 12.7 min.
The same measure for `Nc1ncnc2c1ncn2C1OC(CSCCC([NH3+])C(=O)[O-])C(O)C1O` (stereo unspecified) [S-Adenosyl-homocysteine]: 11.2 min; for `C[S+](CCC(N)C(=O)[O-])CC1OC(n2cnc3c(N)ncnc32)C(O)C1O` (stereo unspecified) [S-Adenosyl-methionine]: 14.2 min.
For `CSc1ncc(CC(C(=O)[O-])[N+](C)(C)C)[nH]1` (stereo unspecified) [S-Methyl-ergothioneine], the LC retention time was 7.9 min.
For `Nc1ncnc2c1ncn2C1OC(CSCC(N)C(=O)O)C(O)C1O` (stereo unspecified) [S-adenosyl-cysteine], the LC retention time was 10.6 min.
Regarding `Nc1c(C(=O)NC(CC(=O)O)C(=O)O)ncn1C1OC(COP(=O)(O)O)C(O)C1O` (stereo unspecified) [SAICAR], the LC retention time was 17.1 min.
As for `NC(CCCCNC(CCC(=O)O)C(=O)O)C(=O)O` (stereo unspecified) [Saccharopine], the LC retention time was 13.3 min.
Consider `O=C(CO)C(O)C(O)C(O)C(O)COP(=O)(O)O` (stereo unspecified) [Sedoheptulose-7-phosphate], for which the LC retention time is 13.7 min.
Consider `NC(CO)C(=O)O` (stereo unspecified) [Serine], for which the LC retention time was 13.1 min.
The same measure for `O=C(O)CCC(=O)O` [Succinate]: 12.6 min; for `NCCS(=O)(=O)O` [Taurine]: 12.1 min.
Take `CC(O)C(N)C(=O)O` (stereo unspecified) [Threonine]: the LC retention time was 11.7 min.
`O=P(O)(O)OCC1OC(OC2OC(CO)C(O)C(O)C2O)C(O)C(O)C1O` (stereo unspecified) [Trehalose-6-phosphate]: the LC retention time is 14.7 min.
With `OCC1OC(OC2OC(CO)C(O)C(O)C2O)C(O)C(O)C1O` (stereo unspecified) [Trehalose] the figure was 13.6 min.

Values taken from the RepoRT retention time repository (doi:10.1039/c4mb00346b).
